Laboratory results: ChEMBL document CHEMBL1123770, “Systematic synthesis and biological evaluation of alpha- and beta-D-lyxofuranosyl nucleosides of the five naturally occurring nucleic acid bases” (1987)
Converted amounts (≈) assume the structure as drawn.

Legend:
HeLa [1] = experiment: Minimum inhibitory concentration (MIC) required to reduce virus-induced cytopathogenicity by 50% against Coxsackie virus B4 in HeLa cells; format: functional; details: Homo sapiens
HeLa [2] = experiment: Minimum cytotoxic concentration (MCC) required to cause a microscopically detectable alteration of host cell morphology, when incubated with HeLa cells; format: functional; details: Homo sapiens
[3] = Minimum cytotoxic concentration (MCC) required to cause a microscopically detectable alteration of host cell morphology, when incubated with PRK cells; format: functional; details: Oryctolagus cuniculus
Vero [4] = experiment: Minimum cytotoxic concentration (MCC) required to cause a microscopically detectable alteration of host cell morphology, when incubated with Vero B cells; format: functional; details: Chlorocebus sabaeus
Vero [5] = experiment: Minimum inhibitory concentration (MIC) required to reduce virus-induced cytopathogenicity by 50% against Coxsackie virus B4 in African green monkey kidney (Vero B)cells; format: functional, Chlorocebus sabaeus
WI-38 [6] = experiment: Minimum cytotoxic concentration (MCC) required to cause a microscopically detectable alteration of host cell morphology, when incubated with WI-38 cells; format: functional; details: Homo sapiens
WI-38 [7] = experiment: Minimum inhibitory concentration (MIC) required to reduce virus-induced cytopathogenicity by 50% against Rhinovirus 9 in human diploid (WI-38)cells; format: functional
WI-38 [8] = experiment: Minimum inhibitory concentration (MIC) required to reduce virus-induced cytopathogenicity by 50% against Rhinovirus-1A in human diploid (WI-38)cells; format: functional
Vero [9] = experiment: Minimum inhibitory concentration (MIC) required to reduce virus-induced cytopathogenicity by 50% against Parainfluenza virus-3 in African green monkey kidney (Vero B)cells; format: functional, Chlorocebus sabaeus
Vero [10] = experiment: Minimum inhibitory concentration (MIC) required to reduce virus-induced cytopathogenicity by 50% against Reo virus-1 in African green monkey kidney (Vero B)cells; format: functional, Chlorocebus sabaeus
Vero [11] = experiment: Minimum inhibitory concentration (MIC) required to reduce virus-induced cytopathogenicity by 50% against forest virus in African green monkey kidney (Vero B)cells; format: functional; details: Chlorocebus sabaeus
Vero [12] = experiment: Minimum inhibitory concentration (MIC) required to reduce virus-induced cytopathogenicity by 50% against Sindbis virus in African green monkey kidney (Vero B)cells; format: functional; details: Chlorocebus sabaeus
Oryctolagus cuniculus [13] = species: Oryctolagus cuniculus; experiment: Minimum inhibitory concentration (MIC) required to reduce virus-induced cytopathogenicity by 50% against G strain of Herpes simplex virus-2 in primary rabbit kidney cells; format: functional
Oryctolagus cuniculus [14] = species: Oryctolagus cuniculus; experiment: Minimum inhibitory concentration (MIC) required to reduce virus-induced cytopathogenicity by 50% against KOS strain of Herpes simplex virus-1 in primary rabbit kidney cells; format: functional
Mus musculus [15] = species: Mus musculus; experiment: Number of mice dead after HSV-1 infection observed from day 12 to day 20; format: functional
Mus musculus [16] = species: Mus musculus; experiment: Number of mice dead after HSV-2 infection observed from day 12 to day 20; format: functional
Mus musculus [17] = species: Mus musculus; experiment: Number of mice normal, without lesion after HSV-1 infection observed from day 0 to day 3; format: functional
Mus musculus [18] = species: Mus musculus; experiment: Number of mice normal, without lesion after HSV-2 infection observed from day 0 to day 3; format: functional
Mus musculus [19] = species: Mus musculus; experiment: Number of mice normal, without lesion after HSV-2 infection observed from day 12 to day 20; format: functional
Mus musculus [20] = species: Mus musculus; experiment: Survival rate at 20th day expressed as number of mice survived infected with HSV-1; out of 10; format: functional
Mus musculus [21] = species: Mus musculus; experiment: Survival rate at 20th day expressed as number of mice survived infected with HSV-2; out of 10; format: functional
[22] = Inhibitory effect on 196 strain of Herper simplex virus-2 yield, in primary rabbit kidney cell culture 400 ug/mL concentration after 24 hours.; format: functional, Oryctolagus cuniculus
[23] = Inhibitory effect on 196 strain of Herper simplex virus-2 yield, in primary rabbit kidney cell culture 400 ug/mL concentration after 48 hours.; format: functional, Oryctolagus cuniculus
[24] = Inhibitory effect on 196 strain of Herper simplex virus-2 yield, in primary rabbit kidney cell culture 40 ug/mL concentration after 24 hours.; format: functional, Oryctolagus cuniculus
[25] = Inhibitory effect on 196 strain of Herper simplex virus-2 yield, in primary rabbit kidney cell culture 40 ug/mL concentration after 48 hours.; format: functional, Oryctolagus cuniculus
[26] = Inhibitory effect on KOS strain of Herper simplex virus-1 yield, in primary rabbit kidney cell culture 100 ug/mL concentration after 48 hours.; format: functional, Oryctolagus cuniculus
[27] = Inhibitory effect on KOS strain of Herper simplex virus-1 yield, in primary rabbit kidney cell culture 400 ug/mL concentration after 48 hours.; format: functional, Oryctolagus cuniculus
[28] = Inhibitory effect on KOS strain of Herper simplex virus-1 yield, in primary rabbit kidney cell culture 40 ug/mL concentration after 48 hours.; format: functional, Oryctolagus cuniculus
[29] = Inhibitory effect on KOS strain of Herper simplex virus-1 yield, in primary rabbit kidney cell culture at 100 ug/mL concentration after 24 hours; format: functional, Oryctolagus cuniculus
[30] = Inhibitory effect on KOS strain of Herper simplex virus-1 yield, in primary rabbit kidney cell culture at 400 ug/mL concentration after 24 hours; format: functional, Oryctolagus cuniculus
[31] = Inhibitory effect on KOS strain of Herper simplex virus-1 yield, in primary rabbit kidney cell culture at 40 ug/mL concentration after 24 hours; format: functional, Oryctolagus cuniculus
Oryctolagus cuniculus [32] = species: Oryctolagus cuniculus; experiment: Minimum inhibitory concentration (MIC) required to reduce virus-induced cytopathogenicity by 50% against Vaccinia virus in primary rabbit kidney cells; format: functional
[33] = Inhibitory effect on 196 strain of Herper simplex virus-2 yield, in primary rabbit kidney cell culture 100 ug/mL concentration after 24 hours.; format: functional, Oryctolagus cuniculus
[34] = Inhibitory effect on 196 strain of Herper simplex virus-2 yield, in primary rabbit kidney cell culture 100 ug/mL concentration after 48 hours.; format: functional, Oryctolagus cuniculus
Mus musculus [35] = species: Mus musculus; experiment: Number of mice normal, without lesion after HSV-1 infection observed from day 12 to day 20; format: functional
WI-38 (Homo sapiens) = experiment: Minimum inhibitory concentration (MIC) required to reduce virus-induced cytopathogenicity by 50% against Rhinovirus-1A in human diploid (WI-38)cells
HeLa [36] = experiment: Minimum inhibitory concentration (MIC) required to reduce virus-induced cytopathogenicity by 50% against Vesicular stomatitis virus in HeLa cells; format: functional; details: Homo sapiens
HeLa [37] = experiment: Minimum inhibitory concentration (MIC) required to reduce virus-induced cytopathogenicity by 50% against Polio virus-1 in HeLa cells; format: functional; details: Homo sapiens
Oryctolagus cuniculus [38] = species: Oryctolagus cuniculus; experiment: Minimum inhibitory concentration (MIC) required to reduce virus-induced cytopathogenicity by 50% against Vesicular stomatitis virus in primary rabbit kidney cells; format: functional
[39] = Chlorocebus sabaeus, read-out: MIC
[40] = Oryctolagus cuniculus, read-out: MIC

## Nc1nc2c(ncn2[C@H]2O[C@H](CO)[C@H](O)[C@@H]2O)c(=O)[nH]1
HeLa [1]
  MIC: > 400 µg/mL
HeLa [2]
  MCC: > 400 µg/mL
[3]
  MCC: > 400 µg/mL
Vero [4]
  MCC: > 400 µg/mL
Vero [5]; [39]
  MIC: > 400 µg/mL
WI-38 [6]
  MCC: > 400 µg/mL
WI-38 [7]; Homo sapiens, read-out: MIC
  MIC: 200 µg/mL (≈ 706 µM)
WI-38 [8]
  MIC: > 400 µg/mL
Vero [9]; [39]
  MIC: > 400 µg/mL
Vero [10]; [39]
  MIC: > 400 µg/mL
Vero [11]
  MIC: > 400 µg/mL
Vero [12]
  MIC: > 400 µg/mL
Oryctolagus cuniculus [13]; [40]
  MIC: > 400 µg/mL
Oryctolagus cuniculus [14]
  MIC: > 400 µg/mL

## O=c1ccn([C@H]2O[C@H](CO)[C@H](O)[C@@H]2O)c(=O)[nH]1
HeLa [1]
  MIC: > 400 µg/mL
HeLa [2]
  MCC: > 400 µg/mL
[3]
  MCC: > 400 µg/mL
Vero [4]
  MCC: > 400 µg/mL
Vero [5]; [39]
  MIC: > 400 µg/mL
WI-38 [6]
  MCC: > 400 µg/mL
WI-38 [7]; Homo sapiens, read-out: MIC
  MIC: > 400 µg/mL
WI-38 [8]
  MIC: > 400 µg/mL
Vero [9]; [39]
  MIC: > 400 µg/mL
Vero [10]; [39]
  MIC: > 200 µg/mL
Vero [11]
  MIC: > 400 µg/mL
Vero [12]
  MIC: > 400 µg/mL
Oryctolagus cuniculus [13]; [40]
  MIC: > 400 µg/mL
Oryctolagus cuniculus [14]
  MIC: > 400 µg/mL

## Nc1ncnc2c1ncn2[C@@H]1O[C@H](CO)[C@H](O)[C@@H]1O (stereo in doubt; 8)
HeLa [1]
  MIC: > 400 µg/mL
HeLa [2]
  MCC: > 400 µg/mL
Mus musculus [15]
  No. of mice: 6
Mus musculus [16]
  No. of mice: 7
Mus musculus [17]
  No. of mice: 10
Mus musculus [18]
  No. of mice: 10
Mus musculus [19]
  No. of mice: 3
Mus musculus [20]
  Survival rate: 4
Mus musculus [21]
  Survival rate: 3
[3]
  MCC: > 400 µg/mL
Vero [4]
  MCC: > 400 µg/mL
Vero [5]; [39]
  MIC: 70 µg/mL (≈ 262 µM)
WI-38 [6]
  MCC: > 400 µg/mL
WI-38 [7]; Homo sapiens, read-out: MIC
  MIC: > 200 µg/mL
Vero [9]
  MIC: 70 µg/mL (≈ 262 µM)
Vero [10]; [39]
  MIC: > 400 µg/mL
Vero [11]
  MIC: > 400 µg/mL
Vero [12]
  MIC: > 400 µg/mL
[22]
  Virus yield: 3.8 log pfu ml-1
[23]
  Virus yield: 5.1 log pfu ml-1
[24]
  Virus yield: 5.4 log pfu ml-1
[25]
  Virus yield: 5.5 log pfu ml-1
[26]
  Virus yield: 6.7 log pfu ml-1
[27]
  Virus yield: 6.6 log pfu ml-1
[28]
  Virus yield: 7 log pfu ml-1
[29]
  Virus yield: 6.8 log pfu ml-1
[30]
  Virus yield: 6.2 log pfu ml-1
[31]
  Virus yield: 6.8 log pfu ml-1
Oryctolagus cuniculus [13]
  MIC: 100 µg/mL (≈ 374 µM)
Oryctolagus cuniculus [14]
  MIC: > 400 µg/mL
Oryctolagus cuniculus [32]
  MIC: 70 µg/mL (≈ 262 µM)
[33]
  Virus yield: 5.1 log pfu ml-1
[34]
  Virus yield: 5.3 log pfu ml-1
Mus musculus [35]
  No. of mice: 4
WI-38 (Homo sapiens)
  MIC: > 200 µg/mL

## Nc1ncnc2c1ncn2[C@@H]1O[C@H](CO)[C@H](O)[C@@H]1O (stereo in doubt; 22d)
Vero [5]
  MIC: 100 µg/mL (≈ 374 µM)
WI-38 [7]
  MIC: >400 µg/mL
WI-38 [8]
  MIC: > 400 µg/mL
Vero [9]
  MIC: >200 µg/mL
Vero [10]
  MIC: >200 µg/mL
Oryctolagus cuniculus [13]
  MIC: >400 µg/mL
Oryctolagus cuniculus [32]
  MIC: 200 µg/mL (≈ 748 µM)

## NC(=O)c1ncn([C@@H]2O[C@H](CO)[C@@H](O)[C@H]2O)n1 [RIBAVIRIN]
HeLa [36]
  MIC: 20 µg/mL (≈ 81.9 µM)
HeLa [1]
  MIC: 70 µg/mL (≈ 287 µM)
HeLa [37]
  MIC: 70 µg/mL (≈ 287 µM)
HeLa [2]
  MCC: > 200 µg/mL
[3]
  MCC: > 400 µg/mL
Vero [4]
  MCC: > 400 µg/mL
Vero [5]; [39]
  MIC: 10 µg/mL (≈ 40.9 µM)
WI-38 [6]
  MCC: > 400 µg/mL
WI-38 [7]; Homo sapiens, read-out: MIC
  MIC: > 400 µg/mL
WI-38 [8]
  MIC: 150 µg/mL (≈ 614 µM)
Vero [9]; [39]
  MIC: 70 µg/mL (≈ 287 µM)
Vero [10]; [39]
  MIC: 70 µg/mL (≈ 287 µM)
Vero [11]
  MIC: > 400 µg/mL
Vero [12]
  MIC: 70 µg/mL (≈ 287 µM)
Oryctolagus cuniculus [13]; [40]
  MIC: > 400 µg/mL
Oryctolagus cuniculus [14]
  MIC: > 400 µg/mL
Oryctolagus cuniculus [32]; [40]
  MIC: 20 µg/mL (≈ 81.9 µM)
Oryctolagus cuniculus [38]
  MIC: 150 µg/mL (≈ 614 µM)

## Nc1ncnc2c1ccn2[C@@H]1O[C@H](CO)[C@@H](O)[C@H]1O [TUBERCIDIN]
HeLa [36]
  MIC: 0.07 µg/mL (≈ 0.263 µM)
HeLa [1]
  MIC: 0.2 µg/mL (≈ 0.751 µM)
HeLa [37]
  MIC: 0.07 µg/mL (≈ 0.263 µM)
HeLa [2]
  MCC: > 1 µg/mL
[3]
  MCC: 1 µg/mL
Vero [4]
  MCC: > 0.4 µg/mL
Vero [5]; [39]
  MIC: 0.2 µg/mL (≈ 0.751 µM)
WI-38 [6]
  MCC: > 4 µg/mL
WI-38 [7]; Homo sapiens, read-out: MIC
  MIC: > 4 µg/mL
WI-38 [8]
  MIC: 0.02 µg/mL (≈ 0.0751 µM)
Vero [9]; [39]
  MIC: > 0.1 µg/mL
Vero [10]; [39]
  MIC: > 0.1 µg/mL
Vero [11]
  MIC: > 0.4 µg/mL
Vero [12]
  MIC: 0.2 µg/mL (≈ 0.751 µM)
Oryctolagus cuniculus [13]; [40]
  MIC: > 0.4 µg/mL
Oryctolagus cuniculus [14]
  MIC: > 0.4 µg/mL
Oryctolagus cuniculus [32]; [40]
  MIC: 0.2 µg/mL (≈ 0.751 µM)
Oryctolagus cuniculus [38]
  MIC: 0.07 µg/mL (≈ 0.263 µM)
